Measured values from patent publication US8952024B2, “Herbicidal pyrimidone derivatives” (E I du Pont de Nemours and Company, priority 2009, dated 2015).

Assays:
Type in all cases: in vivo
[1] = tested on: corn (Zea mays); assay: Test B pre-/postemergence plant response
Excerpt: (§1) Seeds of plant species selected from blackgrass (Alopecurus myosuroides), downy bromegrass (Bromus tectorum), green foxtail (Setaria viridis), Italian ryegrass (Lolium multiflorum), wheat (Triticum aestivum), wild oat (Avena fatua), deadnettle (henbit deadnettle, Lamium amplexicaule), galium (catchweed bedstraw, Galium aparine), bermudagrass (Cynodon dactylon), Surinam grass (Brachiaria decumbens), cocklebur (Xanthium strumarium), corn (Zea mays), large crabgrass (Digitaria sanguinalis), woolly cupgrass (Eriochloa villosa), giant foxtail (Setaria faberii), goosegrass (Eleusine indica), johnsongrass (Sorghum halepense), kochia (Kochia scoparia), lambsquarters (Chenopodium album), morningglory (Ipomoea coccinea), nightshade (eastern black nightshade, Solanum ptycanthum), yellow nutsedge (Cyperus esculentus), pigweed (Amaranthus retroflexus), ragweed (common ragweed, Ambrosia elatior), Russian thistle (Salsola kali), soybean (Glycine max), sunflower (common oilseed sunflower, Helianthus annuus) and velvetleaf (Abutilon theophrasti) were planted into a blend of loam soil and sand and treated preemergence with test compounds formulated in a non-phytotoxic solvent mixture which included a surfactant.
(§2) At the same time, plants selected from these crop and weed species and also winter barley (Hordeum vulgare), canarygrass (Phalaris minor), chickweed (Stellaria media) and windgrass (Apera spica-venti) were planted in pots containing Redi-Earth® planting medium (Scotts Company, 14111 Scottslawn Road, Marysville, Ohio 43041) comprising spaghnum peat moss, vermiculite, wetting agent and starter nutrients and treated with postemergence applications of some of the test chemicals formulated in the same manner. Plants ranged in height from 2 to 18 cm (1- to 4-leaf stage) for postemergence treatments.
(§3) Treated plants and controls were maintained in a greenhouse for 13 to 15 days, after which time all treated plants were visually evaluated and compared to controls. Plant response ratings, summarized in Table B, are based on a scale of 0 to 100 where 0 is no effect and 100 is complete control. A dash (-) response means no test result.

[2] = tested on: giant foxtail (Setaria faberii); assay: Test B pre-/postemergence plant response
Excerpt: as §1, §2, §3

[3] = tested on: goosegrass (Eleusine indica); assay: Test B pre-/postemergence plant response
Excerpt: as §1, §2, §3

[4] = tested on: green foxtail (Setaria viridis); assay: Test B pre-/postemergence plant response
Excerpt: as §1, §2, §3

[5] = tested on: johnsongrass (Sorghum halepense); assay: Test B pre-/postemergence plant response
Excerpt: as §1, §2, §3

[6] = tested on: lambsquarters (Chenopodium album); assay: Test B pre-/postemergence plant response
Excerpt: as §1, §2, §3

[7] = tested on: pigweed (Amaranthus retroflexus); assay: Test B pre-/postemergence plant response
Excerpt: as §1, §2, §3

[8] = tested on: soybean (Glycine max); assay: Test B pre-/postemergence plant response
Excerpt: as §1, §2, §3

[9] = tested on: velvetleaf (Abutilon theophrasti); assay: Test B pre-/postemergence plant response
Excerpt: as §1, §2, §3

[10] = tested on: yellow nutsedge (Cyperus esculentus); assay: Test B pre-/postemergence plant response
Excerpt: as §1, §2, §3

[11] = tested on: canarygrass (Phalaris minor); assay: Test B postemergence plant response
Outline: (§4)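 Visual ratings from 0 (no effect) to 100 (complete control), made against controls 13–15 days after treatment, kept in a greenhouse. Compounds were applied postemergence to potted plants at the 1- to 4-leaf stage (2–18 cm).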

[12] = tested on: chickweed (Stellaria media); assay: Test B postemergence plant response
Outline: as §4

[13] = tested on: windgrass (Apera spica-venti); assay: Test B postemergence plant response; conditions: for Plant response rating, Windgrass: Postemergence
Outline: as §4

[14] = tested on: winter barley (Hordeum vulgare); assay: Test B postemergence plant response; conditions: for Barley plant response rating (0 to 100 scale): 62 g ai/ha, postemergence, 0 is no effect, 100 is complete control; for Plant response rating, Barley: Postemergence
Outline: as §4

[15] = 31 g ai/ha, postemergence, scale 0 to 100, 0 is no effect, 100 is complete control
[16] = 62 g ai/ha, postemergence, 0 is no effect, 100 is complete control, 13 to 15 days
[17] = Postemergence, 125 g ai/ha, scale 0 to 100 (0 no effect, 100 complete control)
[18] = Postemergence, 250 g ai/ha, scale 0 to 100 (0 no effect, 100 complete control)
[19] = Preemergence, 31 g ai/ha, scale 0 to 100 (0 no effect, 100 complete control)
[20] = Preemergence, 125 g ai/ha, scale 0 to 100, 0 no effect, 100 complete control
[21] = Preemergence, 250 g ai/ha, 0 to 100 scale
[22] = Preemergence, 62 g ai/ha, scale 0 to 100 (0 no effect, 100 complete control)
[23] = 125 g ai/ha, scale 0 to 100 (0 no effect, 100 complete control)
[24] = Postemergence, 31 g ai/ha, 0 to 100 scale (0 no effect, 100 complete control)
[25] = Postemergence, 250 g ai/ha, scale 0 to 100 (0 no effect, 100 complete control), 13 to 15 days
[26] = 31 g ai/ha, 0 to 100 scale (0 no effect, 100 complete control)
[27] = 250 g ai/ha, scale 0 to 100 (0 no effect, 100 complete control), 13 to 15 days

`COCCCn1c(-c2cc(F)cc(F)c2)ncc(C(=O)C2=C(O)CCCC2=O)c1=O` [Compound 120] was tested, and the “Plant response rating, Corn” value [1, 15] was 15, the “Corn plant response rating (0 to 100 scale)” value [1, 16] was 20 and the “Plant response rating, Corn” value [1, 17] was 50. The “Plant response rating, Corn” value [1, 18] was 75, the “Plant response rating, Corn” value [1, 19] was 0 and the “Plant response rating, Corn” value [1, 20] was 25. The “Corn plant response rating” value [1, 21] was 55, the “Plant response rating, Foxtail, Giant” value [2, 15] was 75 and the “Foxtail, Giant plant response rating (0 to 100 scale)” value [2, 16] was 80. For the same compound, the “Plant response rating, Foxtail, Giant” value [2, 17] was 85, the “Plant response rating, Foxtail, Giant” value [2, 18] was 98 and the “Plant response rating, Foxtail, Giant” value [2, 19] was 75. The “Plant response rating, Foxtail, Giant” value [2, 22] was 98, the “Plant response rating, Foxtail, Giant” value [2, 20] was 98 and the “Foxtail, Giant plant response rating” value [2, 21] was 100. The “Plant response rating, Goosegrass” value [3, 15] was 75, the “Goosegrass plant response rating (0 to 100 scale)” value [3, 16] was 80 and the “Plant response rating, Goosegrass” value [3, 17] was 85. The “Plant response rating, Goosegrass” value [3, 18] was 98, the “Plant response rating, Goosegrass” value [3, 19] was 100 and the “Plant response rating, Goosegrass” value [3, 22] was 100. For the same compound, the “Plant response rating, Goosegrass” value [3, 20] was 100, the “Goosegrass plant response rating” value [3, 21] was 100 and the “Plant response rating, Foxtail, Green” value [4, 15] was 90. For the same compound, the “Foxtail, Green plant response rating (0 to 100 scale)” value [4, 16] was 95, the “Plant response rating, Foxtail, Green” value [4, 17] was 95 and the “Plant response rating, Foxtail, Green” value [4, 18] was 100. For the same compound, the “Plant response rating, Foxtail, Green” value [4, 19] was 95, the “Plant response rating, Foxtail, Green” value [4, 22] was 98 and the “Plant response rating, Foxtail, Green” value [4, 20] was 100. For the same compound, the “Foxtail, Green plant response rating” value [4, 21] was 100, the “Plant response rating, Johnsongrass” value [5, 15] was 15 and the “Johnsongrass plant response rating (0 to 100 scale)” value [5, 16] was 25. The “Plant response rating, Johnsongrass” value [5, 17] was 75, the “Plant response rating, Johnsongrass” value [5, 18] was 80 and the “Plant response rating, Johnsongrass” value [5, 19] was 35. The “Plant response rating, Johnsongrass” value [5, 22] was 70, the “Plant response rating, Johnsongrass” value [5, 20] was 80 and the “Johnsongrass plant response rating” value [5, 21] was 90. The “Plant response rating, Lambsquarters” value [6, 15] was 80, the “Lambsquarters plant response rating (0 to 100 scale)” value [6, 16] was 85 and the “Plant response rating, Lambsquarters” value [6, 17] was 98. The “Plant response rating, Lambsquarters” value [6, 18] was 100, the “Plant response rating, Lambsquarters” value [6, 19] was 100 and the “Plant response rating, Lambsquarters” value [6, 22] was 100. For the same compound, the “Plant response rating, Lambsquarters” value [6, 20] was 100, the “Lambsquarters plant response rating” value [6, 21] was 100 and the “Plant response rating, Pigweed” value [7, 15] was 95. The “Pigweed plant response rating (0 to 100 scale)” value [7, 16] was 98, the “Plant response rating, Pigweed” value [7, 17] was 100 and the “Plant response rating, Pigweed” value [7, 18] was 100. The “Plant response rating, Pigweed” value [7, 19] was 95, the “Plant response rating, Pigweed” value [7, 22] was 100 and the “Plant response rating, Pigweed” value [7, 20] was 100. For the same compound, the “Pigweed plant response rating” value [7, 21] was 100, the “Soybean plant response rating (0 to 100 scale)” value [8, 16] was 80 and the “Plant response rating, Soybean” value [8, 17] was 95. The “Plant response rating, Soybean” value [8, 18] was 98, the “Plant response rating, Soybean” value [8, 19] was 15 and the “Plant response rating, Soybean” value [8, 22] was 70. For the same compound, the “Plant response rating, Soybean” value [8, 20] was 80, the “Soybean plant response rating” value [8, 21] was 80 and the “Velvetleaf plant response rating (0 to 100 scale)” value [9, 16] was 95. The “Plant response rating, Velvetleaf” value [9, 17] was 98, the “Plant response rating, Velvetleaf” value [9, 18] was 100 and the “Plant response rating, Velvetleaf” value [9, 19] was 80. The “Plant response rating, Velvetleaf” value [9, 22] was 100, the “Plant response rating, Velvetleaf” value [9, 20] was 100 and the “Velvetleaf plant response rating” value [9, 21] was 100. For the same compound, the “Plant response rating, Nutsedge, Yellow” value [10, 15] was 5, the “Nutsedge, Yellow plant response rating (0 to 100 scale)” value [10, 16] was 35 and the “Plant response rating, Nutsedge, Yellow” value [10, 17] was 65. For the same compound, the “Plant response rating, Nutsedge, Yellow” value [10, 18] was 75, the “Plant response rating, Nutsedge, Yellow” value [10, 19] was 70 and the “Plant response rating, Nutsedge, Yellow” value [10, 22] was 90. For the same compound, the “Plant response rating, Nutsedge, Yellow” value [10, 20] was 98, the “Nutsedge, Yellow plant response rating” value [10, 21] was 98 and the “Plant response rating, Canarygrass” value [11, 15] was 0. For the same compound, the “Canarygrass plant response rating (0 to 100 scale)” value [11, 16] was 30, the “Plant response rating, Canarygrass” value [11, 17] was 55 and the “Plant response rating, Canarygrass” value [11, 18] was 55. For the same compound, the “Plant response rating, Chickweed” value [12, 15] was 60, the “Chickweed plant response rating (0 to 100 scale)” value [12, 16] was 75 and the “Plant response rating, Chickweed” value [12, 17] was 85. The “Plant response rating, Chickweed” value [12, 18] was 100, the “Windgrass plant response rating (0 to 100 scale)” value [13, 16] was 80 and the “Plant response rating, Windgrass” value [13, 23] was 90. For the same compound, the “Barley plant response rating (0 to 100 scale)” value ([14]; 13 to 15 days) was 5, the “Plant response rating, Barley” value [14, 23] was 5 and the “Plant response rating, Barley” value ([14]; 250 g ai/ha, scale 0 to 100 (0 no effect, 100 complete control)) was 5.
For `O=C1CCCC(O)=C1C(=O)c1cnc(-c2cccs2)n(C2CCCCC2)c1=O` [Compound 189], the “Plant response rating, Corn” value [1, 24] was 20, the “Plant response rating, Corn” value [1, 17] was 35 and the “Plant response rating, Corn” value [1, 25] was 45. The “Plant response rating, Foxtail, Giant” value [2, 24] was 75, the “Plant response rating, Foxtail, Giant” value [2, 17] was 90 and the “Plant response rating, Foxtail, Giant” value [2, 25] was 98. The “Plant response rating, Goosegrass” value [3, 24] was 60, the “Plant response rating, Goosegrass” value [3, 17] was 90 and the “Plant response rating, Goosegrass” value [3, 25] was 90. The “Plant response rating, Foxtail, Green” value [4, 24] was 65, the “Plant response rating, Foxtail, Green” value [4, 17] was 90 and the “Plant response rating, Foxtail, Green” value [4, 25] was 95. The “Plant response rating, Johnsongrass” value [5, 24] was 50, the “Plant response rating, Johnsongrass” value [5, 17] was 65 and the “Plant response rating, Johnsongrass” value [5, 25] was 70. For the same compound, the “Plant response rating, Lambsquarters” value [6, 24] was 98, the “Plant response rating, Lambsquarters” value [6, 17] was 100 and the “Plant response rating, Lambsquarters” value [6, 25] was 100. The “Plant response rating, Pigweed” value [7, 24] was 80, the “Plant response rating, Pigweed” value [7, 17] was 100 and the “Plant response rating, Pigweed” value [7, 25] was 100. For the same compound, the “Plant response rating, Soybean” value [8, 24] was 90, the “Plant response rating, Soybean” value [8, 17] was 98 and the “Plant response rating, Soybean” value [8, 25] was 100. For the same compound, the “Plant response rating, Velvetleaf” value [9, 24] was 85, the “Plant response rating, Velvetleaf” value [9, 17] was 100 and the “Plant response rating, Velvetleaf” value [9, 25] was 100. For the same compound, the “Plant response rating, Nutsedge, Yellow” value [10, 24] was 20, the “Plant response rating, Nutsedge, Yellow” value [10, 17] was 55 and the “Plant response rating, Nutsedge, Yellow” value [10, 25] was 65. The “Plant response rating, Canarygrass” value [11, 24] was 0, the “Plant response rating, Canarygrass” value [11, 17] was 5 and the “Plant response rating, Canarygrass” value [11, 25] was 10. The “Plant response rating, Chickweed” value [12, 24] was 98, the “Plant response rating, Chickweed” value [12, 17] was 100 and the “Plant response rating, Chickweed” value [12, 25] was 100. For the same compound, the “Plant response rating, Windgrass” value [13, 26] was 25, the “Plant response rating, Windgrass” value [13, 23] was 60 and the “Plant response rating, Windgrass” value [13, 27] was 80. The “Barley plant response rating (0 to 100 scale)” value ([14]; 13 to 15 days) was 5, the “Plant response rating, Barley” value [14, 26] was 0 and the “Plant response rating, Barley” value [14, 23] was 15. The “Plant response rating, Barley” value [14, 27] was 40.
